Test results reported in patent US20230295229A1, “PEPTIDE SELECTIVELY BINDING TO CANCER CELL-DERIVED EXOSOME, AND USES THEREOF” (KYUNGPOOK NATIONAL UNIVERSITY INDUSTRY-ACADEMIC COOPERATION …, priority 2020, published 2023).

Experiments:
[1] = test system: exosomes derived from A549 lung cancer cells; assay: flow cytometry binding of FITC-labeled peptide to exosomes; design: species or system human; settings: 4° C.
From the text: 5 types of peptides (CTDTKIK, CRLSKKS, CRKVAKG, CRKRPAL, CAVRRKL) were synthesized based on the result of ELISA shown in FIG. 3. In order to investigate the binding of candidate peptides by FACS method, a peptide in which fluorescein isothiocyanate (FITC), a fluorescent substance, is conjugated to the carboxy terminus was synthesized by requesting Peptron Co. (Daegeon, Korea). Each peptide was synthesized by standard Fmoc method and purified by […]. In addition, FITC-labeled NSSSVDK peptide was used as a control.
In order to observe the peptide binding to the exosomes, biotin and exosomes were first combined in the same manner as described in FIG. 3, and then the exosomes were immobilized by binding with avidin beads. The exosome-bead complex was blocked for non-specific binding through treatment of 1% bovine serum albumin (BSA) dissolved in phosphate buffer for 30 minutes at room temperature. After washing, the FITC-labeled peptide was bound to the exosome-bead complex at 4° C. for 30 minutes. After the reaction, the binding of the peptide to the exosomes was analyzed using a flow cytometer.
On the other hand, in order to observe the peptide binding to the exosome-producing cells, 1×10^6 cells were first prepared. […] After the reaction, the binding of the peptide to the cells was analyzed using a flow cytometer.

[2] = test system: MDA-MB231 cell-derived exosome / MDA-MB231 cells; assay: confocal microscopy of peptide internalization with CD63-GFP exosomes; type: cell-based; settings: 10 uM TAMARA-conjugated peptide, 37° C., 1 hour
Experimental: In addition, an experiment was performed on exosomes derived from MDA-MB231 cells which were prepared to secrete exosomes showing green fluorescence by expressing CD63-GFP. GFP exosomes (green) and 10 uM TAMARA-conjugated peptide (red) were reacted with MDA-MB231 cells at 37° C. for 1 hour. Thereafter, after performing immobilization, DAPI nucleus staining, and mounting as described above, observation was followed using a confocal microscope (Zeiss, Oberkochen, Germany).

[3] = test system: exosomes derived from normal HEK293 cells; assay: inhibition of exosome internalization by magnetic removal of peptide-bound exosomes; type: cell-based; settings: exosomes pretreated with biotin-labeled peptide, then removed with magnet
Experimental: In order to further identify the binding specificity of the ExoPep peptide to the A549 cell-derived exosome, the exosomes were labeled with a DID fluorescent dye, reacted with the biotin-labeled ExoPep peptide, and then conjugated with biotin by reacting the labeled avidin with magnetic particles. The complex of exosomes/biotin-peptide/avidin-magnetic particles prepared by the reaction was captured and removed using a magnet, and the remaining exosomes were treated to recipient cells (FIG. 5A).
On the other hand, internalization of exosomes into recipient cells was not reduced by pretreatment with the control peptide (sequence: NSSSVDK) (FIG. 5B). In addition, when a similar experiment was conducted on exosomes derived from normal HEK293 cells, the internalization of exosomes into recipient cells was not inhibited by the ExoPep peptide of an example embodiment of the present disclosure as well as the control peptide (FIG. 5C).

[4] = test system: A549 tumor mouse blood-derived exosome; assay: flow cytometry binding of FITC-labeled ExoPep to blood-derived exosomes; settings: FITC-labeled peptide, CD63 antibody beads
Experimental: A549 cells were injected into BALB/c nude mice, blood was collected after the tumor grew, and exosomes were isolated using an exosome isolation kit. To measure the binding of the peptide to the exosomes by flow cytometry, the exosomes were labeled with CD63 antibody beads. As a control group, exosomes isolated from the blood of normal mice were used. The exosome-bead complex labeled with CD63 beads was blocked by a reaction with 1% BSA/PBS at room temperature for 30 minutes to reduce non-specific binding. After washing, the FITC-labeled ExoPep peptides were bound to the exosome-bead complex at 4° C. for 30 minutes. After washing again with PBS, the binding of the peptide to the exosome-bead complex was analyzed using a flow cytometer (ThermoFisher Scientific, USA) (FIG. 7A).

[5] = test system: recipient cell A549; assay: internalization of peptide with blood-derived exosomes into cells; type: cell-based, human; settings: DiD-labeled exosomes, FITC-labeled peptide
Experimental: In order to observe internalization of peptides into cells, exosomes were labeled with DiD, reacted with FITC-labeled peptides, and treated to A549 cells. Cells were immobilized with 4% paraformaldehyde for 5 minutes and stained with DAPI, followed by observation under a microscope.

[6] = test system: A549 tumor mice; assay: in vivo distribution imaging of DiD-labeled exosomes with or without ExoPep; design: species or system mouse; settings: without exosomes
Experimental: DiD-labeled A549 tumor mouse blood-derived exosomes and A549 cell-derived exosomes were reacted with ExoPep peptide, and image monitoring was performed for in vivo distribution. Tumor xenograft mice were prepared by subcutaneously implanting A549 cell suspension (5×10^6 cells) along with PBS into the right flank of 5-week-old female BALB/c nude mice. When the tumor size reached a volume of approximately 100-200 mm^3, the mice were anesthetized. A549 tumor mice was intravenously administered with DiD-labeled A549 tumor mouse blood-derived exosomes (mEXO) and a product obtained by reacting the exosomes (mEXO) with peptides (mEXO+ExoPep, n=3) as well as DiD-labeled A549 cell-derived exosomes (cEXO) and a product obtained by reacting the exosomes (cEXO) with peptides (cEXO+ExoPep, n=3). The inventors of the present disclosure used FITC-labeled control peptide and ExoPep (n=3) as controls. In vivo fluorescence images were analyzed using an IVIS imaging system (Caliper Life Sciences, Massachusetts, USA) at various time points (2, 4, 8, and 24 hours, respectively) after administration of DiD-labeled exosomes. In vitro fluorescence images of excised tumors and organs were collected 24 hours after administration. All major organs (liver, kidney, spleen, heart, and lung) having tumor tissues were separated, washed with PBS, and subjected to in vitro fluorescence analysis (n=3).

Substance: CRKVAKG [ExoPep]
- binding to exosomes compared to exosome-producing cell [1]: higher binding
- peptide observed in cells (internalization with exosomes) [2]: more of which were observed in the cells than the control peptide
- internalization of exosomes into recipient cells [3]: not inhibited
- binding to tumor mouse blood-derived exosome versus normal mouse blood-derived exosome [4]: bound better
- internalization into recipient cell, tumor versus normal mouse blood-derived exosome [5]: internalized more
- fluorescence signal of FITC-labeled peptide itself [6]: low signals
